Laboratory results as given in patent publication US20230122344A1, “ANTAGONISTS OF THE MUSCARINIC ACETYLCHOLINE RECEPTOR M4” (Vanderbilt University, priority 2019, published 2023).
pIC50: −log10 of the molar value.

Molecular target: T1, Human M4 (Homo sapiens, UniProt P08173)
T1 construct: expressed in transfected cells; host or cells: CHO-K1 (ATCC), co-transfected with chimeric G protein Gqi5
T1 sequence (P08173 1-479): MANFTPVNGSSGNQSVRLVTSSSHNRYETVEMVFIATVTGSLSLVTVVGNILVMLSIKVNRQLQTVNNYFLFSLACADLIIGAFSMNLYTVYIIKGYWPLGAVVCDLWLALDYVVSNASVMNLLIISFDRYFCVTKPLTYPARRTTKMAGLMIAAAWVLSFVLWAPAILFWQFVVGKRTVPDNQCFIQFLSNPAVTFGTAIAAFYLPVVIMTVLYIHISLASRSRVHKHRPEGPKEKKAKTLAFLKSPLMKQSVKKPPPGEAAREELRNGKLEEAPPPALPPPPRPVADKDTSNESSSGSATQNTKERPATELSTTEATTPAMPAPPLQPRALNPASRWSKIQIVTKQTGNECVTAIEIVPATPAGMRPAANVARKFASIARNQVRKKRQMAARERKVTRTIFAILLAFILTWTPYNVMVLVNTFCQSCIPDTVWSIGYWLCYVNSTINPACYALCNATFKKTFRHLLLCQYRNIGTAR
Experiment: mAChR M4 cell-based functional assay (calcium flux, antagonism of EC80 acetylcholine response)
Details: M4/Gqi5/CHO-K1 cells; for remaining activity at 30 µM: CHO-K1, % ACh maximum at 30 μM, read-out: Human M4 Emin; for pIC50: decrease of response elicited by EC80 acetylcholine
Method in brief: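 CHO-K1 cells stably expressing human or rat M4 with Gqi5, Fluo-4 loaded; calcium measured by fluorescence ratio on FDSS. Compound added, then EC20 acetylcholine at 143 s and EC80 at 268 s; IC50 from decrease of EC80 response, four-parameter logistic fit.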

Compound	remaining activity at 30 µM [%]	pIC50
Cc1cc(N[C@H]2C[C@@H]3CN(CC4CCOCC4)C[C@@H]3C2)nnc1-c1cc(F)ccc1F [compound 13, (3aR,5s,6aS)-N-(6-(2,5-difluorophenyl)-5-methylpyridazin-3-yl)-2-((tetrahydro-2H-pyran-4-yl)methyl)octahydrocyclopenta[c]pyrrol-5-amine]	5	9.85
[2H]C([2H])(C1CCOCC1)N1C[C@H]2C[C@H](Nc3nnc(-c4ccc5nn(C)cc5c4C)cc3C)C[C@H]2C1 [compound 23, (3aR,5s,6aS)-N-(6-(2,4-dimethyl-2H-indazol-5-yl)-4-methylpyridazin-3-yl)-2-((tetrahydro-2H-pyran-4-yl)methyl-d2)octahydrocyclopenta[c]pyrrol-5-amine]	3	9.23
COc1cc(-c2ccc3nn(C)cc3c2)nnc1N[C@H]1C[C@@H]2CN(CC3CCOCC3)C[C@@H]2C1 [compound 5, (3aR,5s,6aS)-N-(4-methoxy-6-(2-methyl-2H-indazol-5-yl)pyridazin-3-yl)-2-((tetrahydro-2H-pyran-4-yl)methyl)octahydrocyclopenta[c]pyrrol-5-amine]	3	8.41
Fc1ccc(C(F)(F)F)c(-c2cc(C(F)F)c(N[C@H]3C[C@@H]4CN(CC5CCOCC5)C[C@@H]4C3)nn2)c1 [compound 87, (3aR,5s,6aS)-N-(4-(difluoromethyl)-6-(5-fluoro-2-(trifluoromethyl)phenyl)pyridazin-3-yl)-2-((tetrahydro-2H-pyran-4-yl)methyl)octahydrocyclopenta[c]pyrrol-5-amine]	3	8.31
Fc1ccc(Cl)c(-c2nnc(N[C@H]3C[C@@H]4CN(CC5CCOCC5)C[C@@H]4C3)cc2C(F)F)c1 [compound 44, (3aR,5s,6aS)-N-(6-(2-chloro-5-fluorophenyl)-5-(difluoromethyl)pyridazin-3-yl)-2-((tetrahydro-2H-pyran-4-yl)methyl)octahydrocyclopenta[c]pyrrol-5-amine]	2	9.19
[2H]C([2H])(C1CCOCC1)N1C[C@H]2C[C@H](Nc3nnc(-c4ccccc4)cc3C)C[C@H]2C1 [compound 24, (3aR,5s,6aS)-N-(4-methyl-6-phenylpyridazin-3-yl)-2-((tetrahydro-2H-pyran-4-yl)methyl-d2)octahydrocyclopenta[c]pyrrol-5-amine]	4	8.79
COc1cc(-c2ccc3nn(C)cc3c2C)nnc1N[C@H]1C[C@@H]2CN(CC3CCOCC3)C[C@@H]2C1 [compound 8, (3aR,5s,6aS)-N-(6-(2,4-dimethyl-2H-indazol-5-yl)-4-methoxypyridazin-3-yl)-2-((tetrahydro-2H-pyran-4-yl)methyl)octahydrocyclopenta[c]pyrrol-5-amine]	4	8.69
Cc1ccc(F)cc1-c1nnc(N[C@H]2C[C@@H]3CN(CC4CCOCC4)C[C@@H]3C2)cc1C [compound 12, (3aR,5s,6aS)-N-(6-(5-fluoro-2-methylphenyl)-5-methylpyridazin-3-yl)-2-((tetrahydro-2H-pyran-4-yl)methyl)octahydrocyclopenta[c]pyrrol-5-amine]	2	8.59
Cc1cc(N[C@H]2C[C@@H]3CN(CC4CCOCC4)C[C@@H]3C2)nnc1-c1cc(F)ccc1Cl [compound 14, (3aR,5s,6aS)-N-(6-(2-chloro-5-fluorophenyl)-5-methylpyridazin-3-yl)-2-((tetrahydro-2H-pyran-4-yl)methyl)octahydrocyclopenta[c]pyrrol-5-amine]	3	8.63
Fc1cc(F)c(F)c(-c2nnc(N[C@H]3C[C@@H]4CN(CC5CCCCC5)C[C@@H]4C3)cc2C(F)F)c1 [compound 53, (3aR,5s,6aS)-2-(cyclohexylmethyl)-N-(5-(difluoromethyl)-6-(2,3,5-trifluorophenyl)pyridazin-3-yl)octahydrocyclopenta[c]pyrrol-5-amine]	2	7.72
Cc1c(-c2ccc3nn(C)cc3c2)nnc(N[C@H]2C[C@@H]3CN(CC4CCOCC4)C[C@@H]3C2)c1C#N [compound 72, 5-methyl-6-(2-methyl-2H-indazol-5-yl)-3-(((3aR,5s,6aS)-2-((tetrahydro-2H-pyran-4-yl)methyl)octahydrocyclopenta[c]pyrrol-5-yl)amino)pyridazine-4-carbonitrile]	4	9.04
[2H]C([2H])(C1CCOCC1)N1C[C@H]2C[C@H](Nc3nnc(N4CCC(F)(F)CC4)cc3C3CCC3)C[C@H]2C1 [compound 29, (3aR,5s,6aS)-N-(4-cyclobutyl-6-(4,4-difluoropiperidin-1-yl)pyridazin-3-yl)-2-((tetrahydro-2H-pyran-4-yl)methyl-d2)octahydrocyclopenta[c]pyrrol-5-amine]	2	7.22
Fc1ccc(F)c(-c2cc(C(F)F)c(N[C@H]3C[C@@H]4CN(CC5CCOCC5)C[C@@H]4C3)nn2)c1 [compound 58, (3aR,5s,6aS)-N-(4-(difluoromethyl)-6-(2,5-difluorophenyl)pyridazin-3-yl)-2-((tetrahydro-2H-pyran-4-yl)methyl)octahydrocyclopenta[c]pyrrol-5-amine]	3	8.19
Cc1cc(N[C@H]2C[C@@H]3CN(CC4CCOCC4)C[C@@H]3C2)nnc1-c1ccc2nn(C)cc2c1C [compound 16, (3aR,5s,6aS)-N-(6-(2,4-dimethyl-2H-indazol-5-yl)-5-methylpyridazin-3-yl)-2-((tetrahydro-2H-pyran-4-yl)methyl)octahydrocyclopenta[c]pyrrol-5-amine]	3	8.97
[2H]C([2H])(C1CCOCC1)N1C[C@H]2C[C@H](Nc3nnc(-c4cc(F)ccc4F)c(C)c3C(F)(F)F)C[C@H]2C1 [compound 75, (3aR,5s,6aS)-N-(6-(2,5-difluorophenyl)-5-methyl-4-(trifluoromethyl)pyridazin-3-yl)-2-((tetrahydro-2H-pyran-4-yl)methyl-d2)octahydrocyclopenta[c]pyrrol-5-amine]	3	7.68
Cc1ccc(F)cc1-c1cc(S(C)(=O)=O)c(N[C@H]2C[C@@H]3CN(CC4CCOCC4)C[C@@H]3C2)nn1 [compound 9, (3aR,5s,6aS)-N-(6-(5-fluoro-2-methylphenyl)-4-(methylsulfonyl)pyridazin-3-yl)-2-((tetrahydro-2H-pyran-4-yl)methyl)octahydrocyclopenta[c]pyrrol-5-amine]	3	7.74
Fc1cc(F)c(F)c(-c2nnc(N[C@H]3C[C@@H]4CN(CC5CCOCC5)C[C@@H]4C3)cc2C(F)F)c1 [compound 41, (3aR,5s,6aS)-N-(5-(difluoromethyl)-6-(2,3,5-trifluorophenyl)pyridazin-3-yl)-2-((tetrahydro-2H-pyran-4-yl)methyl)octahydrocyclopenta[c]pyrrol-5-amine]	3	9.48
[2H]C([2H])(C1CCOCC1)N1C[C@H]2C[C@H](Nc3cc(C(F)F)c(-c4cc(F)ccc4C)nn3)C[C@H]2C1 [compound 32, (3aR,5s,6aS)-N-(5-(difluoromethyl)-6-(5-fluoro-2-methylphenyl)pyridazin-3-yl)-2-((tetrahydro-2H-pyran-4-yl)methyl-d2)octahydrocyclopenta[c]pyrrol-5-amine]	3	8.56
[2H]C([2H])(C1CCOCC1)N1C[C@H]2C[C@H](Nc3cc(C)c(-c4cc(F)ccc4F)nn3)C[C@H]2C1 [compound 17, (3aR,5s,6aS)-N-(6-(2,5-difluorophenyl)-5-methylpyridazin-3-yl)-2-((tetrahydro-2H-pyran-4-yl)methyl-d2)octahydrocyclopenta[c]pyrrol-5-amine]	3	9.24
[2H]C([2H])(C1CCOCC1)N1C[C@H]2C[C@H](Nc3nnc(-c4cc(F)ccc4F)cc3C3CC3)C[C@H]2C1 [compound 27, (3aR,5s,6aS)-N-(4-cyclopropyl-6-(2,5-difluorophenyl)pyridazin-3-yl)-2-((tetrahydro-2H-pyran-4-yl)methyl-d2)octahydrocyclopenta[c]pyrrol-5-amine]	4	6.14
